Data as given in US6967196B1, “Sulfonamide compounds and uses thereof” (Bristol-Myers Squibb Company, priority 1999, dated 2005).
Structures can show the parent of a compound that is named as a salt.

System: amyloid β production in transfected H4 (human neuroglioma) cells stably expressing APP constructs
Experiment: In vitro cell-based assay of inhibitors of amyloid β production (ELISA)
Conditions: Homo sapiens, 16 h, transfected H4 cells expressing APP, approximately 16 hours incubation, amyloid β in medium by ELISA; read-out: ACTIVITY (IC50, inhibition of amyloid β production)
Outline: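 H4 neuroglioma cells stably expressing APP constructs were dosed in fresh medium, screened initially at 10-100 μM, and incubated ~16 h. Medium Aβ was measured by ELISA with C-terminal-epitope capture and N-terminal detection antibodies, quantified from a standard curve, with dose-response testing of actives.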

Row | Compound | IC50 [nM]
1 | CCCCCCCCCCCCCCNC(=O)[C@@H](C)N(c1cc(Cl)ccc1F)S(=O)(=O)c1ccc(Cl)cc1 [Example 1337] | > 500
2 | C[C@H](COC(=O)NCCCn1cnnn1)N(c1cc(Cl)ccc1F)S(=O)(=O)c1ccc(Cl)cc1 [Example 1294] | ≤ 25
3 | C[C@H](C(=O)NCCc1c(Cl)cccc1Cl)N(c1cc(Cl)ccc1F)S(=O)(=O)c1ccc(Cl)cc1 [Example 1314] | 100 to 500
4 | C[C@H](COC(=O)N1CCCC1)N(c1cc(Cl)ccc1CO)S(=O)(=O)c1ccc(Cl)cc1 [Example 1287] | ≤ 25

Same assay, conditions: Homo sapiens, 16 h, transfected H4 cells stably expressing APP constructs; approximately 16 hours incubation; amyloid β in medium by ELISA; read-out: ACTIVITY (IC50, inhibition of amyloid β production)

Row | Compound | IC50 [nM]
5 | O=S(=O)(c1ccccc1)N(Cc1ccccc1CCCO)c1ccccc1 [Example 1088, N-[2-(3-hydroxypropyl)benzyl]-N-phenylbenzenesulfonamide] | > 10000
6 | CCN(CC)S(=O)(=O)CCC[C@@H](C)N(c1cc(Cl)ccc1Cl)S(=O)(=O)c1ccc(Cl)cc1 [Example 1213, 4-chloro-N-[2,5-dichlorophenyl]-N-[4-[(diethylamino)sulfonyl]-1(R)-methylbutyl]benzenesulfonamide] | ≤ 25
7 | C[C@H](CCCS(=O)(=O)N1CCCC1)N(c1cc(Cl)ccc1Cl)S(=O)(=O)c1ccc(Cl)cc1 [Example 1204, 4-chloro-N-[2,5-dichlorophenyl]-N-[4-[(1-pyrrolidinyl)sulfonyl]-1(R)-methylbutyl]benzenesulfonamide] | ≤ 25
8 | CC(C)(O)C#Cc1ccccc1CN(c1ccccc1)S(=O)(=O)c1ccc(Cl)cc1 [Example 1086, 4-chloro-N-[2-(3-hydroxy-3-methyl-1-butynyl)benzyl]-N-phenylbenzenesulfonamide] | > 10000

Same assay, conditions: Homo sapiens, 16 h, transfected H4 cells stably expressing APP; approximately 16 hours incubation; amyloid β in medium by ELISA; Table B; read-out: ACTIVITY (IC50, inhibition of amyloid β production)

Row | Compound | IC50 [nM]
9 | C[C@H](c1ccc(F)cc1COCc1ccccn1)N(c1cc(F)ccc1F)S(=O)(=O)c1ccc(Cl)cc1 [Example 400, 4-chloro-N-(2,5-difluorophenyl)-N-((1R)-1-{4-fluoro-2-[(2-pyridinylmethoxy)methyl]phenyl}ethyl)benzenesulfonamide] | 50 to 100

Same assay, conditions: Homo sapiens, 16 h, transfected H4 cells stably expressing APP; approximately 16 hours incubation; amyloid β in medium by ELISA; read-out: ACTIVITY (IC50, inhibition of amyloid β production)

Row | Compound | IC50 [nM]
10 | O=S(=O)(c1ccc(Cl)cc1)N(Cc1ccccc1OCCCn1ccnc1)c1ccccc1 [Example 882, 4-chloro-N-{2-[3-(1H-imidazol-1-yl)propoxy]benzyl}-N-phenylbenzenesulfonamide hydrochloride] | > 500
11 | O=S(=O)(c1ccc(Cl)cc1)N(Cc1ccccc1OCCCCCCl)c1ccccc1 [Example 1026, 4-chloro-N-{2-[(5-chloropentyl)oxy]benzyl}-N-phenylbenzenesulfonamide] | > 500
12 | O=S(=O)(c1ccc(Cl)cc1)N(Cc1ccccc1CCCCO)c1ccccc1 [Example 1016, 4-chloro-N-[2-(4-hydroxybutyl)benzyl]-N-phenylbenzenesulfonamide] | > 500
13 | O=S(=O)(c1ccc(Cl)cc1)N(Cc1ccccc1OCCCN1CCNCC1)c1ccccc1 [Example 944, 4-chloro-N-phenyl-N-{2-[3-(1-piperazinyl)propoxy]benzyl}benzenesulfonamide dihydrochloride] | > 500
14 | Cc1cccc(N(Cc2ccccc2OCCCN2CCCCC2)S(=O)(=O)c2ccc(Cl)cc2)c1 [Example 919, 4-chloro-N-(3-methylphenyl)-N-{2-[3-(1-piperidinyl)propoxy]benzyl}benzenesulfonamide hydrochloride] | > 500
15 | Cc1ccccc1N(Cc1ccccc1OCCCN1CCCCC1)S(=O)(=O)c1ccc(Cl)cc1 [Example 875, 4-chloro-N-(2-methylphenyl)-N-{2-[3-(1-piperidinyl)propoxy]benzyl}benzenesulfonamide hydrochloride] | 100 to 500
16 | Cc1ccc(OCCCN2CCCCC2)c(CN(c2cc(F)ccc2F)S(=O)(=O)c2ccc(Cl)cc2)c1 [Example 957, 4-chloro-N-(2,5-difluorophenyl)-N-{5-methyl-2-[3-(1-piperidinyl)propoxy]benzyl}benzenesulfonamide hydrochloride] | > 500

Same assay, conditions: Table B; transfected H4 cells stably expressing APP; approximately 16 hours incubation; amyloid β in medium by ELISA; read-out: ACTIVITY (inhibitory concentration IC50, inhibition of amyloid β production)

Row | Compound | IC50 [nM]
17 | C[C@H](CCS(=O)(=O)CC(=O)O)N(c1cc(Cl)ccc1Cl)S(=O)(=O)c1ccc(Cl)cc1 [Example 183, (6R)-6-[(2,5-dichlorophenyl)[(4-chlorophenyl)sulfonyl]amino]-3-thioheptanoic Acid, 3,3 Dioxide] | 25 to 50
18 | C[C@H](CCCS(=O)(=O)Cl)N(c1cc(Cl)ccc1Cl)S(=O)(=O)c1ccc(Cl)cc1 [Example 18] | ≤ 25

Same assay, conditions: transfected H4 cells stably expressing APP constructs; approximately 16 hours incubation; amyloid β in medium by ELISA; read-out: ACTIVITY (IC50, inhibition of amyloid β production)

Row | Compound | IC50 [nM]
19 | CSC1CCCN(CC[C@@H](C)N(c2cc(Cl)ccc2Cl)S(=O)(=O)c2ccc(Cl)cc2)C1 (stereo partly drawn) [Example 1142, 4-chloro-N-(2,5-dichlorophenyl)-N-[3-[(3-methylthio)-1-piperidinyl]-1(R)-methylpropyl]benzenesulfonamide] | 100 to 500
20 | CSC1CCCN(CC[C@@H](C)N(c2cc(Cl)ccc2Cl)S(=O)(=O)c2ccc(Cl)cc2)C1 (stereo partly drawn) [Example 1159] | > 500
21 | C[C@H]([C@@H](C)OC(=O)NCCCn1ccnc1)N(c1cc(Cl)ccc1CO)S(=O)(=O)c1ccc(Cl)cc1 [Example 1246, 4-Chloro-N-[5-chloro-2-(hydroxymethyl)phenyl]-N-[2-[[N′-[3-(1H-imidazol-1-yl)propylamino]carbonyl]oxy]-(1R)-(2R)-dimethylethyl]benzenesulfonamide] | ≤ 25
22 | CC(C)SCCC[C@@H](C)N(c1cc(Cl)ccc1Cl)S(=O)(=O)c1ccc(Cl)cc1 [Example 1190] | 100 to 500

Same assay, conditions: transfected H4 cells stably expressing APP; approx. 16 h incubation; amyloid β in medium by ELISA; read-out: ACTIVITY (IC50, inhibition of amyloid β production)

Row | Compound | IC50 [nM]
23 | C[C@H](c1ccccc1COC(=O)NCc1ccco1)N(c1cc(F)ccc1F)S(=O)(=O)c1ccc(Cl)cc1 [Example 667, 2-((1R)-1-{[(4-chlorophenyl)sulfonyl]-2,5-difluoroanilino}ethyl)benzyl 2-furylmethylcarbamate] | 100 to 500
24 | N-{3-[2-(1-{[(4-chlorophenyl)sulfonyl]-2,5-difluoroanilino}methyl)phenoxy]propyl}-2-fluoro-N-methylbenzamide [Example 733] | 100 to 500
25 | (2S)-2-[[2-((1R)-1-{[(4-chlorophenyl)sulfonyl]-2,5-difluoroanilino}ethyl)benzyl](methyl)amino]propanoic acid hydrochloride [Example 659] | 100 to 500
26 | 2-[2-((1R)-1-{[(4-chlorophenyl)sulfonyl]-2,5-difluoroanilino}ethyl)phenyl]ethyl sec-butylcarbamate [Example 650] | 100 to 500
27 | 2-((1R)-1-{[(4-chlorophenyl)sulfonyl]-2,5-difluoroanilino}ethyl)benzyl 2,5-difluorobenzylcarbamate [Example 639] | 100 to 500
28 | 3-[2-((1R)-1-{[(4-chlorophenyl)sulfonyl]-2,5-difluoroanilino}ethyl)phenyl]propyl phenylcarbamate [Example 730] | 100 to 500
29 | 2-((1R)-1-{[(4-chlorophenyl)sulfonyl]-2,5-difluoroanilino}ethyl)benzyl 2-(4-chlorophenyl)ethylcarbamate [Example 731] | 100 to 500
30 | N-{3-[2-(1-{[(4-chlorophenyl)sulfonyl]-2,5-difluoroanilino}ethyl)phenoxy]butyl}-3-cyclopentyl-N-methylpropanamide [Example 712] | 100 to 500

Same assay, conditions: transfected H4 cells stably expressing APP; approximately 16 hours incubation; amyloid β in medium by ELISA; Table B; read-out: ACTIVITY (IC50, inhibition of amyloid β production)

Row | Compound | IC50 [nM]
31 | COC(=O)C(N)CS(=O)(=O)Cc1cc(F)ccc1[C@@H](C)N(c1cc(F)ccc1F)S(=O)(=O)c1ccc(Cl)cc1 (stereo partly drawn) [Example 470, Methyl 2-amino-3-{[2-(1R)-1-{[(4-chlorophenyl)sulfonyl]-2,5-difluoroanilino}ethyl)-5-fluorobenzyl]sulfonyl}propanoate Hydrochloride] | 50 to 100
32 | COC(=O)[C@@H](CS(=O)(=O)Cc1cc(F)ccc1[C@@H](C)N(c1cc(F)ccc1F)S(=O)(=O)c1ccc(Cl)cc1)NC(=O)OC(C)(C)C [Example 471, Methyl (2S)-2-[(tert-butoxycarbonyl)amino]-3-{[2-((1R)-1-{[(4-chlorophenyl)sulfonyl]-2,5-difluoroanilino}ethyl)-5-fluorobenzyl]sulfonyl}propanoate] | 50 to 100
33 | COC(=O)CCS(=O)(=O)Cc1cc(F)ccc1[C@@H](C)N(c1cc(F)ccc1F)S(=O)(=O)c1ccc(Cl)cc1 [Example 466, Methyl 3-{[2-((1R)-1-{[(4-chlorophenyl)sulfonyl]-2,5-difluoroanilino}ethyl)-5-fluorobenzyl]sulfonyl}propanoate] | 50 to 100
34 | 4-tert-butyl-N-{3-[2-(1-{[(4-chlorophenyl)sulfonyl]-2,5-difluoroanilino}ethyl)phenoxy]propyl}benzamide [Example 274] | 25 to 50

Same assay, conditions: transfected H4 cells stably expressing APP; approximately 16 hours incubation; amyloid β in medium by ELISA; read-out: ACTIVITY (IC50, inhibition of amyloid β production)

Row | Compound | IC50 [nM]
35 | O=S(=O)(c1ccc(Cl)cc1)N(Cc1ccccc1OCCCN1CCCCC1)CC1CC1 [Example 984, 4-chloro-N-(cyclopropylmethyl-N-{2-[3-(1-piperidinyl)propoxy]benzyl}benzenesulfonamide hydrochloride] | > 500
36 | C[C@H](c1ccc(F)cc1CCCC(=O)O)N(c1cc(F)ccc1F)S(=O)(=O)c1ccc(Cl)cc1 [Example 1073, 4-[2-((1R)-1-{[(4-chlorophenyl)sulfonyl]-2,5-difluoroanilino}ethyl)-5-fluorophenyl]butanoic acid] | > 500
